In patent US10774083B2, “Heterocyclic amide compound” (TAKEDA PHARMACEUTICAL COMPANY LIMITED, priority 2016, dated 2020):

Test system: human malignant melanoma cell line SKMEL-2
Assay: antitumor action on mice transplanted with human malignant melanoma cell line SKMEL-2
Type: in vivo, mouse
Details: once per day, 14 days
Method: An antitumor action of the compound of the present invention on mice transplanted with human malignant melanoma cell line SKMEL-2 and human fibrosarcoma cell line HT-1080 was evaluated by the following method.
Human malignant melanoma cell line SKMEL-2 was subcutaneously transplanted by injection to 7-week-old BALB/cA Jcl-nu/nu female mice (CLEA Japan, Inc.) at 1.0×10^7 cells (G1). At the time point when the tumor volume reached around 800 mm^3 after transplantation, the cells were subcultured and transplanted into 7-week-old BALB/cA Jcl-nu/nu female mouse (CLEA Japan, Inc.) by using trocar (G2). […] At 13 days from transplantation, the tumor diameter of the engrafted tumor was measured and the tumor volume was calculated by the following formula.
Individuals having a tumor volume of 100 to 300 mm^3 were selected for SKMEL-2, and individuals having a tumor volume of 200 to 400 mm^3 were selected for HT-1080, and 4 or 5 mice per group were used for the experiment. […] The tumor diameter was measured one day before the start of administration and one day after completion of administration and the tumor volume was calculated.
The tumor proliferation rate (T/C (%)) of the test compound administration group in comparison with the control administration group was calculated by the following formula. […]

With `Cc1cc(N2CC[C@@](C#N)(C3CC3)C2=O)cc(C(=O)NCc2cc(F)cc(-c3cnn(C)c3)c2)n1` [Example 159, 4-((3S)-3-cyano-3-cyclopropyl-2-oxopyrrolidin-1-yl)-N-(3-fluoro-5-(1-methyl-1H-pyrazol-4-yl)benzyl)-6-methylpyridine-2-carboxamide] the “T/C (%) tumor proliferation rate” value (SKMEL-2, 5 mg/kg orally) was 64% and the “T/C (%) tumor proliferation rate” value (SKMEL-2, 10 mg/kg orally) was 7.7%.
